In one assay the test system is THP-1 cells. Kind of assay: LPS-Stimulation of THP-1 Cells, TNF-α release. The class given is cell-based. Particulars: Homo sapiens, LPS 1 μg/ml, 6 hrs, read-out: Inhibitor activity versus THP-1 TNFα release. Here is the method:
LPS-Stimulation of THP-1 Cells
THP-1 cells were plated in 100 μl at a density of 4×10^4 cells/well in V-bottomed 96 well tissue culture treated plates and incubated at 37° C. in 5% CO2 for 16 hrs. 2 hrs after the addition of the inhibitor in 100 μl of tissue culture media, the cells were stimulated with LPS (E. coli strain 005:85, Sigma) at a final concentration of 1 μg/ml and incubated at 37° C. in 5% CO2 for 6 hrs. TNF-α levels were measured from cell-free supernatants by sandwich ELISA (R&D Systems #QTA00B)

A further assay deals with T1, IKBKB (IKKβ) (Homo sapiens, UniProt O14920).
T1 construct: purchased Invitrogen (Paisley, UK)
T1 sequence (O14920 1-756): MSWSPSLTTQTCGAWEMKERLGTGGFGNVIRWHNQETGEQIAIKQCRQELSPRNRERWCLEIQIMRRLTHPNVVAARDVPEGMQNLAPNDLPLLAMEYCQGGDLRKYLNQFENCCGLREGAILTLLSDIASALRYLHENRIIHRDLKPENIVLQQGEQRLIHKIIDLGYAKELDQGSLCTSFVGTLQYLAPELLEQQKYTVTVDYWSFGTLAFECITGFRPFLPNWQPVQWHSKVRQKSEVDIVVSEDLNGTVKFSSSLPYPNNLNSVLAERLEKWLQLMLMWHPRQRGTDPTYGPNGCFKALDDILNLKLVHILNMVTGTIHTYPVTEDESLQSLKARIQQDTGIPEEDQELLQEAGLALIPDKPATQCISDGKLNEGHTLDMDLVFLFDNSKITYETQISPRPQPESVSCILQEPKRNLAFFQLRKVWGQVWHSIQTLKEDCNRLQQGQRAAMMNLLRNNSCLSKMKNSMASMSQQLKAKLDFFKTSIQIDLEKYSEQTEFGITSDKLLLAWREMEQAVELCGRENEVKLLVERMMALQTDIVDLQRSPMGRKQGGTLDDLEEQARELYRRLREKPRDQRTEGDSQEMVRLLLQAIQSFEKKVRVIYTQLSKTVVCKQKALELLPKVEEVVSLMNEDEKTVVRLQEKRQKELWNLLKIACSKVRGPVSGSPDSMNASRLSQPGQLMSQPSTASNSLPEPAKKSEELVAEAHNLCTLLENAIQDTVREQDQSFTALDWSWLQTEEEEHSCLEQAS
Put plainly: IKKβ Enzyme Assay (Z'-LYTE, Invitrogen). The format is biochemical. Particulars: ATP at or close to Km; read-out: Inhibitor activity versus IKKβ. Here is the method: The ability of compounds to inhibit IKKβ kinase activity was measured in an assay performed by Invitrogen (Paisley, UK). The Z′-LYTE™ biochemical assay employs a fluorescence-based, coupled-enzyme format and is based on the differential sensitivity of phosphorylated and non-phosphorylated peptides to proteolytic cleavage. The peptide substrate is labelled with two fluorophores—one at each end—that make up a FRET pair. In the primary reaction, the kinase transfers the gamma-phosphate of ATP to a single serine or threonine residue in a synthetic FRET-peptide. In the secondary reaction, a site-specific protease recognizes and cleaves non-phosphorylated FRET-peptides. Phosphorylation of FRET-peptides suppresses cleavage by the Development Reagent. Cleavage disrupts FRET between the donor (i.e., coumarin) and acceptor (i.e. fluorescein) fluorophores on the FRET-peptide, whereas uncleaved, phosphorylated FRET-peptides maintain FRET. A […] method, which calculates the ratio (the Emission Ratio) of donor emission to acceptor emission after excitation of the donor fluorophore at 400 nm, is used to quantitate reaction progress.
The final 10 μL Kinase Reaction consists of 0.9-8.0 ng IKBKB (IKKβ), 2 μM Ser/Thr 05 Peptide and ATP in 50 mM HEPES pH 7.5, 0.01% BRIJ-35, 10 mM MgCl2, 1 mM EGTA. The assay is performed at an ATP concentration at, or close to the Km. After the 60 minute Kinase Reaction incubation at room temperature, 5 μL of a 1:128 dilution of Development Reagent is added. The assay plate is incubated for a further 60 minutes at room temperature and read on a fluorescence plate reader.
Duplicate data points are generated from a ⅓ log dilution series of a stock solution of test compound in DMSO. Nine dilutions steps are made from a top concentration of 10 μM, and a ‘no compound’ blank is included. Data is collected and analysed using XLfit software from IDBS. The dose response curve is curve fitted to model number 205 (sigmoidal dose-response model). From the curve generated, the concentration giving 50% inhibition is determined and reported.

Bounds are passed on as bounds.

As for `NC(=O)Nc1sc(-c2ccc(CN[C@@H](Cc3ccccc3)C(=O)OC3CCCC3)cc2)cc1C(N)=O` [Example 3, Cyclopentyl N-{-4-[4-carbamoyl-5-(carbamoylamino)-2-thienyl]benzyl}-L-phenylalaninate], the IC50 in the assay on THP-1 cells and at IKBKB (IKKβ) was greater than 5000 nM in each case.

Consider `NC(=O)Nc1sc(-c2ccc(CN[C@H](C(=O)OC3CCCC3)c3ccc4ccccc4c3)cc2)cc1C(N)=O` [Example 5, Cyclopentyl (2S)-({4-[4-carbamoyl-5-(carbamoylamino)-2-thienyl]benzyl}amino)(2-naphthyl)acetate], for which the IC50 in the assay with THP-1 cells and on IKBKB (IKKβ) was greater than 5000 nM throughout. For `CC(C)C[C@H](NCc1ccc(-c2cc(C(N)=O)c(NC(N)=O)s2)c(Cl)c1)C(=O)OC1CCCC1` [Example 6, Cyclopentyl N-{-4-[4-carbamoyl-5-(carbamoylamino)-2-thienyl]-3-chlorobenzyl}-L-leucinate], the values for the IC50 with THP-1 cells and on IKBKB (IKKβ) were greater than 5000 nM and less than 1000 nM, respectively. In the case of `Cc1cc(-c2cc(C(N)=O)c(NC(N)=O)s2)ccc1CN[C@@H](CC(C)C)C(=O)OC1CCCC1` [Example 7, Cyclopentyl N-{-4-[4-carbamoyl-5-(carbamoylamino)-2-thienyl]-2-methylbenzyl}-L-leucinate], the figures for the IC50 in the assay with THP-1 cells and on IKBKB (IKKβ) were 1000 to 5000 nM and less than 1000 nM, respectively.

Turning to `CC(C)C[C@H](NC/C=C/c1ccc(-c2cc(C(N)=O)c(NC(N)=O)s2)c(C(F)(F)F)c1)C(=O)O` [Example 79, N-[(2E)-3-{4-[4-carbamoyl-5-(carbamoylamino)thiophen-2-yl]-3-(trifluoromethyl)phenyl}prop-2-en-1-yl]-L-leucine], the IC50 on IKBKB (IKKβ) is 1000 to 5000 nM. Regarding `Cc1cc(-c2cc(C(N)=O)c(NC(N)=O)s2)cc(C)c1/C=C/CN[C@@H](CC(C)C)C(=O)O` [Example 80], the IC50 on IKBKB (IKKβ) was less than 1000 nM. Turning to `NC(=O)Nc1sc(-c2ccc(/C=C/CN[C@H](C(=O)O)c3ccccc3)cc2)cc1C(N)=O` [Example 81, (2S)-{[(2E)-3-{4-[4-carbamoyl-5-(carbamoylamino)-2-thienyl]phenyl}prop-2-en-1-yl]amino}(phenyl)acetic acid], the IC50 at IKBKB (IKKβ) is less than 1000 nM.

`CC(C)(C)OC[C@H](NC/C=C/c1ccc(-c2cc(C(N)=O)c(NC(N)=O)s2)cc1)C(=O)O` [Example 82, O-tert-butyl-N-[(2E)-3-{4-[4-carbamoyl-5-(carbamoylamino)thiophen-2-yl]phenyl}prop-2-en-1-yl]-L-serine]: on IKBKB (IKKβ), the IC50 was less than 1000 nM. With `NC(=O)Nc1sc(-c2ccc(/C=C/CN[C@H](C(=O)O)C3CCCCC3)cc2)cc1C(N)=O` [Example 83, (2S)-{[(2E)-3-{4-[4-carbamoyl-5-(carbamoylamino)thiophen-2-yl]phenyl}prop-2-en-1-yl]amino}(cyclohexyl)ethanoic acid], the IC50 on IKBKB (IKKβ) is less than 1000 nM. Same read-out and setting: the value for `CC(C)C[C@@H](NC/C=C/c1ccc(-c2cc(C(N)=O)c(NC(N)=O)s2)cc1)C(=O)O` [Example 84, N-[(2E)-3-{4-[4-carbamoyl-5-(carbamoylamino)-2-thienyl]phenyl}prop-2-en-1-yl]-D-leucine] was less than 1000 nM; that for `CC(C)C[C@H](NCCc1cccc(-c2cc(C(N)=O)c(NC(N)=O)s2)c1)C(=O)O` [Example 87, N-(2-{3-[4-carbamoyl-5-(carbamoylamino)-2-thienyl]phenyl}ethyl)-L-leucine] was less than 1000 nM; that for `CC(C)C[C@H](NCCc1cc(-c2cc(C(N)=O)c(NC(N)=O)s2)ccc1F)C(=O)O` [Example 90, N-(2-{5-[4-carbamoyl-5-(carbamoylamino)thiophen-2-yl]-2-fluorophenyl}ethyl)-L-leucine] was less than 1000 nM. The same measure, in the same setting: the value for `CC(C)C[C@H](NC/C=C/c1cccc(-c2cc(C(N)=O)c(NC(N)=O)s2)c1)C(=O)O` [Example 93, N-[(2E)-3-{3-[4-carbamoyl-5-(carbamoylamino)-2-thienyl]phenyl}prop-2-en-1-yl]-L-leucine] was less than 1000 nM.

Source of the values: patent US8003695B2 (Chroma Therapeutics Ltd., priority 2006, dated 2011).
